Values after ≈ are worked out from the molar mass of the structure shown.
Key:
[1] = system: B. subtilis 168; experiment: Antibacterial susceptibility test (MIC, microbroth dilution); format: cell-based; details: Bacillus subtilis, 168; 18 hours at 37° C., >90% inhibition of bacterial growth; read-out: MIC, BS 168
Source text: (§1) The bacterial strains used in microbial susceptibility test were E. coli, S. aureus 29213 and B. subtilis 168. E. coli and S. aureus 29213 were obtained from the laboratory of the Hong Kong Polytechnic University. B. subtilis 168 was purchased from American Type Culture Collection (USA). The mammalian cell lines L929 (mouse peritoneal fibroblast), LCC6 (a wild type breast cancer cell line), LCC6MDR (P-gp over-expressed breast cancer cell line) were stocks in our department. Nutrient Agar, tryptone and yeast extract were purchased from Oxoid Limited (Nepean, Ontario, Canada). Luria-Bertani (LB) medium was prepared from 2 g tryptone, 1 g yeast extract, and 2 g sodium chloride in 200 ml deionized water and sterilized. Müller-Hinton broth (MHB), cation-adjusted Müller-Hinton broth (MHB) and trypticase soy broth (TSB) for microbial susceptibility test were purchased from Becton, Dickinson and Company (New Jersey, USA). A microplate reader (Bio-Rad Laboratories Model 680) is used to measure bacterial growth and cytotoxicity. An Olympus FSX100® Bio Imaging Navigator Microscope was used to observe the morphology of B. subtilis cell.
(§2) The minimum inhibitory concentration (MIC) of each compound was determined using microbroth dilution method according to the National Committee for Clinical Laboratory Standards (CLSI) guidelines. All Compounds were dissolved in DMSO and diluted in a serial two-fold manner. A single colony of bacterial strain on a TSB agar plate was inoculated in 5 mL MHB or CA-MHB. The bacterial cells were incubated at 37° C. until the optimal density (OD600) of the growing cells reached 1.0. The cells were then diluted to a final concentration of approximately 5×10^5 CFU/mL in a serial two-fold manner in a 96-well microtiter plate (Iwaki, Japan). Compound 3 and PC190723 were used as positive controls. […] Table 1 below summarizes the MIC of all synthesized compounds.

[2] = system: E. coli; experiment: as above; format: cell-based; details: Escherichia coli; 18 hours at 37° C., >90% inhibition of bacterial growth
Source text: as §1, §2

[3] = system: S. aureus 29213; experiment: as above; format: cell-based; details: Staphylococcus aureus, 29213; 18 hours at 37° C., >90% inhibition of bacterial growth
Source text: as §1, §2

[4] = biological target: T1, S. aureus FtsZ (Staphylococcus aureus, UniProt P0A031); experiment: Light scattering assay (FtsZ polymerization); format: biochemical; details: S. aureus FtsZ 12 μM, 1 mM GTP, serial dilutions of compound
T1 construct: inferred from capture on a nickel chelating column and imidazole elution; made in house; host or cells: E. coli BL21
T1 sequence (P0A031 1-390): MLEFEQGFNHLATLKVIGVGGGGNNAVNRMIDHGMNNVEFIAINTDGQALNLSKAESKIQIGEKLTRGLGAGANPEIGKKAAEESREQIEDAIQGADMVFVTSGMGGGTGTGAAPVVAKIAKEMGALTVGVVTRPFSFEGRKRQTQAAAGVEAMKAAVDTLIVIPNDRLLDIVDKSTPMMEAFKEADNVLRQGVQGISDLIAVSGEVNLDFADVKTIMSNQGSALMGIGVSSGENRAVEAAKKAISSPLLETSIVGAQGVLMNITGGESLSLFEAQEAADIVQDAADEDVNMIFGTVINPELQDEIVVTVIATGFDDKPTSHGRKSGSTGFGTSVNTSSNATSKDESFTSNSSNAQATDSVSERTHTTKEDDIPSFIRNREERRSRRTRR
Experimental: Light scattering assay was used to determine the degree of FtsZ polymerization by measuring the 90° light scattering signal using a fluorescence spectrometer (Perkin-Elmer, USA). The excitation and emission wavelengths were set to 600 nm with a slit width of 5 nm. S. aureus FtsZ (12 μM) was incubated with serial dilutions of the compounds in 50 mM MOPS buffer (pH 6.8) at 25° C. for 10 minutes. The control contained 1% DMSO only. KCl (final concentration: 50 mM) and MgCl2 (final concentration: 10 mM) were then added to the mixture. The mixture was incubated at 37° C. for 8 minutes in order to establish a baseline. A final concentration of 1 mM GTP was added and the light scattering signal was measured for 1,500 seconds. The relative light scattering signals in experimental set-up were calculated with reference to the light scattering signal in control experiment. Three independent experiments were carried out for each compound concentration.

[5] = biological target: T1, S. aureus FtsZ; experiment: GTPase activity assay; format: biochemical; details: FtsZ 7.5 μM, GTP 500 μM, 37° C. 30 minutes
Experimental: The GTPase activity of S. aureus FtsZ was determined in a 96-well microplate using a CytoPhos™ phosphate assay Biochem Kit™ (Cytoskeleton, USA) which measured the concentration of inorganic phosphate released during the hydrolysis of GTP. Recombinant S. aureus FtsZ (7.5 μM) was incubated with serial dilutions of the compounds in 50 mM MOPS buffer (pH 6.5) at 25° C. for 10 minutes. The control contained 1% DMSO only. KCl (final concentration: 200 mM) and MgCl2 (final concentration: 5 mM) were then added to the mixture. The mixture was incubated with GTP (final concentration: 500 μM) at 37° C. for 30 minutes. The insoluble polymer was removed by centrifugation at 13,500 rpm at room temperature for 1 minute. 80 μL supernatant was transferred to a well of a 96-well microplate and incubated with 120 μL of Cytophos reagent at room temperature for 10 minutes. The inorganic phosphate in the mixture was determined by measuring the absorbance at 650 nm in a 96-well microplate reader (BioRad 680). The results from the samples were reported with reference to the control. Three independent experiments were carried out for each compound concentration.

Row | Compound | MIC [1] [µM] | MIC [2] [µM] | MIC [3] [µM] | effect on light scattering signal of FtsZ assembly (polymerization) [4] | effect on GTPase activity of S. aureus FtsZ [5]
1 | CCCCCCCCCNc1ccc(F)c(C(N)=O)c1F [Compound F332, 2,6-difluoro-3-(nonylamino)benzamide] | 3.13 (≈ 0.934 µg/mL) | > 100 | 12.5 (≈ 3.73 µg/mL) | inhibit the light scattering of FtsZ assembly | no significant change of the GTPase activity
2 | CCCCCCCCCN(C)c1ccc(F)c(C(N)=O)c1F [Compound F361, 2,6-difluoro-3-(methyl(nonyl)amino)benzamide] | 1.57 (≈ 0.49 µg/mL) | > 100 | 3.13 (≈ 0.978 µg/mL) | inhibit the light scattering of FtsZ assembly | no significant change of the GTPase activity

From patent US20170348258A1, “3-Amino Benzamide Derivative Serving As B-Lactam Auxiliary Antibiotic, Preparation Method and Use Thereof” (THE HONG KONG POLYTECHNIC UNIVERSITY, priority 2014, published 2017)
